Patent publication US7342012B2, “Inhibitors of αLβ2 mediated cell adhesion” (Mitsubishi Tanabe Pharma Corporation, priority 1999, dated 2008)

Row | melting point | SMILES
1 | 61.2 °C | CC(=O)N[C@@H]1CN2C(=O)N(c3cc(Cl)cc(Cl)c3)C(=O)[C@]2(Cc2ccc(OC(F)(F)F)cc2)C1 [Example 291]
2 | 212.6 °C | CNC(=O)C1CN2C(=O)N(c3cc(Cl)cc(Cl)c3)C(=O)C2(Cc2ccc(OC(F)(F)F)cc2)C1 (stereo not shown) [Example 314]
3 | 122.7 °C | NC(=O)[C@H]1CN2C(=O)N(c3cc(Cl)cc(Cl)c3)C(=O)[C@]2(Cc2ccc(OC(F)(F)F)cc2)C1 [Example 312, (5R, 7R)-5-[4-(Trifluoromethoxy)benzyl]-3-(3,5-dichlorophenyl)-7-carbamoyl-1,3-diazabicyclo[3.3.0]octane-2,4-dione]
4 | 113.5 °C | N#Cc1cc(CC23CCCN2C(=O)N(c2cc(Cl)nc(Cl)c2)C3=O)ccc1O (stereo not shown) [Example 197, 5-(3-Cyano-4-hydroxybenzyl)-3-(2,6-dichloro-4-pyridyl)-1,3-diazabicyclo[3.3.0]octane-2,4-dione]
5 | 107.8 °C | NC(=O)C(N)CC(=O)N[C@@H]1CN2C(=O)N(c3cc(Cl)nc(Cl)c3)C(=O)[C@@]2(Cc2ccc(OC(F)(F)F)cc2)C1 (stereo partly drawn) [Example 255, (5R, 7S)-5-[4-(Trifluoromethoxy)benzyl]-3-(2,6-dichloro-4-pyridyl)-7-[(3-carbamoyl-3-aminopropanoyl)amino]-1,3-diazabicyclo[3.3.0]octane-2,4-dione]
6 | 84.8 °C | CSc1cccc(N2C(=O)N3CCCC3(Cc3ccc(Br)cc3)C2=O)c1 (stereo not shown) [Example 231]
7 | 123.5 °C | NC1CN2C(=O)N(c3cc(Cl)nc(Cl)c3)C(=O)C2(Cc2ccc(OC(F)(F)F)cc2)C1 (stereo not shown) [Example 281]
8 | 141.7 °C | NC(=O)N[C@@H]1CN2C(=O)N(c3cc(Cl)nc(Cl)c3)C(=O)[C@@]2(Cc2ccc(OC(F)(F)F)cc2)C1 [Example 287, (5R, 7S)-5-[4-(Trifluoromethoxy)benzyl]-3-(2,6-dichloro-4-pyridyl)-7-ureido-1,3-diazabicyclo[3.3.0]octane-2,4-dione]
9 | 87.2 °C | CC1(C)COC(c2ccc(CC34CCCCN3C(=O)N(c3cc(Cl)cc(Cl)c3)C4=O)cc2)=N1 (stereo not shown) [Example 159, 6-[4-(4,4-Dimethyl-4,5-dihydro-2-oxazolyl)benzyl]-8-(3,5-dichlorophenyl)-1,8-diazabicyclo[4.3.0]nonane-7,9-dione]
10 | 106.1 °C | CN(C)C(=O)C1CN2C(=O)N(c3cc(Cl)cc(Cl)c3)C(=O)C2(Cc2ccc(OC(F)(F)F)cc2)C1 (stereo not shown) [Example 313]
11 | 164.9 °C | O=C1N(c2cc(Cl)nc(Cl)c2)C(=O)C2(Cc3ccc(O)cc3)CCCN12 (stereo not shown) [Example 196, 5-(4-Hydroxybenzyl)-3-(2,6-dichloro-4-pyridyl)-1,3-diazabicyclo[3.3.0]octane-2,4-dione]
12 | 78.7 °C (dec.) | CNC(=O)c1ccc(CC23CCCCN2C(=O)N(c2cc(Cl)cc(Cl)c2)C3=O)cc1 (stereo not shown) [Example 157]
13 | 122.7 °C | CC(=O)NC1CN2C(=O)N(c3cc(Cl)nc(Cl)c3)C(=O)C2(Cc2ccc(OC(F)(F)F)cc2)C1 (stereo not shown) [Example 283]
14 | 63.5 °C | O=C1N(c2cc(Cl)cc(Cl)c2)C(=O)C2(Cc3ccc([S+]([O-])C(F)(F)F)cc3)CCCN12 (stereo not shown) [Example 310]
15 | 82.6 °C | O=C1N(c2cccc(C(F)(F)F)c2)C(=O)C2(Cc3ccc(Br)cc3)CCCN12 (stereo not shown) [Example 233]
16 | 182.8 °C | O=C1N(c2cc(Cl)nc(Cl)c2)C(=O)C2(Cc3cccc([N+](=O)[O-])c3)CCCN12 (stereo not shown) [Example 239, 5-(3-Nitrobenzyl)-3-(2,6-dichloro-4-pyridyl)-1,3-diazacyclo[3.3.0]octane-2,4-dione]

Continued, compound first:

Row | SMILES | melting point
17 | N#Cc1ccc(CC23CCCN2C(=O)N(Cc2ccncc2)C3=O)cc1 (stereo not shown) [Example 108, 5-(4-Cyanobenzyl)-3-(4-pyridylmethyl)-1,3-diazabicyclo[3.3.0]octane-2,4-dione] | 154 °C
18 | COC(=O)CCN1CCCC2(Cc3ccc(Br)cc3)C(=O)N(c3cc(Cl)nc(Cl)c3)C(=O)N12 (stereo not shown) [Example 103, 6-(4-Bromobenzyl)-8-(2,6-dichloro-4-pyridyl)-2-[2-(methoxycarbonyl)ethyl]-1,2,8-triazabicyclo[4.3.0]nonane-7,9-dione] | 157 °C
19 | O=C(O)CCC(=O)N[C@@H]1CN2C(=O)N(c3cc(Cl)nc(Cl)c3)C(=O)[C@@]2(Cc2ccc(OC(F)(F)F)cc2)C1 [Example 66, (5R,7S)-5-[4-(Trifluoromethoxy)benzyl]-3-(2,6-dichloro-4-pyridyl)-7-(3-carboxypropanoylamino)-1,3-diazabicyclo[3.3.0]octane-2,4-dione] | 101.9 °C
20 | CC(=O)N1CCCC2(Cc3ccc(Br)cc3)C(=O)N(c3cc(Cl)nc(Cl)c3)C(=O)N12 (stereo not shown) [Example 101, 6-(4-Bromobenzyl)-8-(2,6-dichloro-4-pyridyl)-2-acetyl-1,2,8-triazabicyclo[4.3.0]nonane-7,9-dione] | 91 °C
21 | CC(=O)O[C@@H]1CN2C(=O)N(c3cc(Cl)cc(Cl)c3)C(=O)[C@]2(Cc2ccc(Br)cc2)C1 [Example 4, (5S,7S)-5-(4-Bromobenzyl)-3-(3,5-dichlorophenyl)-7-acetoxy-1,3-diazabicyclo[3.3.0]octane-2,4-dione] | 149.8 °C
22 | COc1c(Cl)cc(N2C(=O)N3CCCC3(Cc3ccc(C#N)cc3)C2=O)cc1Cl (stereo not shown) [Example 139, 5-(4-Cyanobenzyl)-3-(3,5-dichloro-4-methoxyphenyl)-1,3-diazabicyclo[3.3.0]octane-2,4-dione] | 95.1 °C
23 | [N-]=[N+]=N[C@@H]1CN2C(=O)N(c3cc(Cl)nc(Cl)c3)C(=O)[C@@]2(Cc2ccc(OC(F)(F)F)cc2)C1 [Example 62, (5R,7S)-5-[4-(Trifluoromethoxy)benzyl]-3-(2,6-dichloro-4-pyridyl)-7-azido-1,3-diazabicyclo[3.3.0]octane-2,4-dione] | 139.9 °C
24 | O=C1N(c2cc(Cl)nc(Cl)c2)C(=O)[C@@]2(Cc3ccc(OC(F)(F)F)cc3)C[C@@H](O)CN12 [Example 58, (5R,7R)-5-[4-(Trifluoromethoxy)benzyl]-3-(2,6-dichloro-4-pyridyl)-7-hydroxy-1,3-diazabicyclo[3.3.0]octane-2,4-dione] | 52.4 °C
25 | O=C1N(c2cc(Cl)cc(Cl)c2)C(=O)[C@@]2(Cc3ccc(Br)cc3)C[C@H](O)CN12 [Example 61, (5R,7S)-5-(4-Bromobenzyl)-3-(3,5-dichlorophenyl)-7-hydroxy-1,3-diazabicyclo[3.3.0]octane-2,4-dione] | 60.4 °C
26 | CN(C)[C@@H]1CN2C(=O)N(c3cc(Cl)cc(Cl)c3)C(=O)[C@@]2(Cc2ccc(Br)cc2)C1 [Example 50, (5R,7S)-5-(4-Bromobenzyl)-3-(3,5-dichlorophenyl)-7-dimethylamino-1,3-diazabicyclo[3.3.0]octane-2,4-dione] | 54 °C
27 | CN1CCN(C(=O)CCC(=O)N[C@@H]2CN3C(=O)N(c4cc(Cl)nc(Cl)c4)C(=O)[C@@]3(Cc3ccc(OC(F)(F)F)cc3)C2)CC1 [Example 69, (5R,7S)-5-[4-(Trifluoromethoxy)benzyl]-3-(2,6-dichloro-4-pyridyl)-7-[3-(4-methyl-1-piperazinylcarbonyl)propanoylamino]-1,3-diazabicyclo[3.3.0]octane-2,4-dione] | 70 °C
28 | N#Cc1ccc(CC23CCCN2C(=O)N(c2cc(Cl)cc(-n4cccc4C=O)c2)C3=O)cc1 (stereo not shown) [Example 52, 5-(4-Cyanobenzyl)-3-[3-chloro-5-(2-formyl-1-pyrrolyl)-phenyl]-1,3-diazabicyclo[3.3.0]octane-2,4-dione] | 109.7 °C
